#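 At the GI50, growth is halved. Definition used: TGI = concentration required for complete inhibition of growth.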
# Tests used:
# Test in all cases: NCI-60 cell line screen, 384-well format
# 786-0 renal = system: 786-0 renal
# A498 renal = system: A498 renal
# A549 NSCLC = system: A549 NSCLC
# ACHN renal = system: ACHN renal
# BT-549 breast = system: BT-549 breast
# CAKI-1 renal = system: CAKI-1 renal
# COLO 205 colon = system: COLO 205 colon
# DU-145 prostate = system: DU-145 prostate
# EKVX NSCLC = system: EKVX NSCLC
# HCC-2998 colon = system: HCC-2998 colon
# HCT-116 colon = system: HCT-116 colon
# HCT-15 colon = system: HCT-15 colon
# HL-60(TB) leukemia = system: HL-60(TB) leukemia
# HOP-62 NSCLC = system: HOP-62 NSCLC
# HOP-92 NSCLC = system: HOP-92 NSCLC
# HS 578T breast = system: HS 578T breast
# HT29 colon = system: HT29 colon
# IGROV1 ovarian = system: IGROV1 ovarian
# KM12 colon = system: KM12 colon
# LOX IMVI melanoma = system: LOX IMVI melanoma
# M14 melanoma = system: M14 melanoma
# MALME-3M melanoma = system: MALME-3M melanoma
# MCF7 breast = system: MCF7 breast
# MDA-MB-231 breast = system: MDA-MB-231 breast
# MDA-MB-468 breast = system: MDA-MB-468 breast
# MOLT-4 leukemia = system: MOLT-4 leukemia
# NCI-H322M lung = system: NCI-H322M lung
# NCI-H522 lung = system: NCI-H522 lung
# OVCAR-3 ovarian = system: OVCAR-3 ovarian
# OVCAR-5 ovarian = system: OVCAR-5 ovarian
# RPMI-8226 leukemia = system: RPMI-8226 leukemia
# RXF 393 renal = system: RXF 393 renal
# SF-268 CNS = system: SF-268 CNS
# SF-295 CNS = system: SF-295 CNS
# SF-539 CNS = system: SF-539 CNS
# SK-MEL-28 melanoma = system: SK-MEL-28 melanoma
# SK-MEL-5 melanoma = system: SK-MEL-5 melanoma
# SN12C renal = system: SN12C renal
# SR leukemia = system: SR leukemia
# T-47D breast = system: T-47D breast
# TK-10 renal = system: TK-10 renal
# UACC-257 melanoma = system: UACC-257 melanoma
# UACC-62 melanoma = system: UACC-62 melanoma
# UO-31 renal = system: UO-31 renal
# CCRF-CEM leukemia = system: CCRF-CEM leukemia
# K-562 leukemia = system: K-562 leukemia
# MDA-MB-435 melanoma = system: MDA-MB-435 melanoma
# NCI-H226 lung = system: NCI-H226 lung
# NCI-H23 lung = system: NCI-H23 lung
# NCI-H460 NSCLC = system: NCI-H460 NSCLC
# NCI/ADR-RES ovarian = system: NCI/ADR-RES ovarian
# OVCAR-4 ovarian = system: OVCAR-4 ovarian
# OVCAR-8 ovarian = system: OVCAR-8 ovarian
# PC-3 prostate = system: PC-3 prostate
# SK-OV-3 ovarian = system: SK-OV-3 ovarian
# SNB-19 CNS = system: SNB-19 CNS
# SNB-75 CNS = system: SNB-75 CNS
# SW-620 colon = system: SW-620 colon
# U251 glioblastoma = system: U251 glioblastoma
compound,measurement,setting,value
CCOc1cc2ncc(C#N)c(Nc3ccc(OCc4ccccn4)c(Cl)c3)c2cc1NC(=O)/C=C/CN(C)C,GI50,786-0 renal,251 nM
same,TGI,786-0 renal,1230 nM
same,GI50,A498 renal,89.6 nM
same,TGI,A498 renal,1220 nM
same,GI50,A549 NSCLC,312 nM
same,TGI,A549 NSCLC,1740 nM
same,GI50,ACHN renal,61.1 nM
same,TGI,ACHN renal,1220 nM
same,GI50,BT-549 breast,396 nM
same,TGI,BT-549 breast,1520 nM
same,GI50,CAKI-1 renal,98.7 nM
same,TGI,CAKI-1 renal,759 nM
same,GI50,COLO 205 colon,3670 nM
same,TGI,COLO 205 colon,> 100000 nM
same,GI50,DU-145 prostate,143 nM
same,TGI,DU-145 prostate,1420 nM
same,GI50,EKVX NSCLC,41.8 nM
same,TGI,EKVX NSCLC,1240 nM
same,GI50,HCC-2998 colon,1260 nM
same,TGI,HCC-2998 colon,2520 nM
same,GI50,HCT-116 colon,473 nM
same,TGI,HCT-116 colon,1670 nM
same,GI50,HCT-15 colon,349 nM
same,TGI,HCT-15 colon,1500 nM
same,GI50,HL-60(TB) leukemia,197 nM
same,TGI,HL-60(TB) leukemia,639 nM
same,GI50,HOP-62 NSCLC,1130 nM
same,TGI,HOP-62 NSCLC,2350 nM
same,GI50,HOP-92 NSCLC,351 nM
same,TGI,HOP-92 NSCLC,1620 nM
same,GI50,HS 578T breast,220 nM
same,TGI,HS 578T breast,848 nM
same,GI50,HT29 colon,1230 nM
same,TGI,HT29 colon,2490 nM
same,GI50,IGROV1 ovarian,25.9 nM
same,TGI,IGROV1 ovarian,320 nM
same,GI50,KM12 colon,1200 nM
same,TGI,KM12 colon,2450 nM
same,GI50,LOX IMVI melanoma,969 nM
same,TGI,LOX IMVI melanoma,2150 nM
same,GI50,M14 melanoma,276 nM
same,TGI,M14 melanoma,1180 nM
same,GI50,MALME-3M melanoma,188 nM
same,TGI,MALME-3M melanoma,808 nM
same,GI50,MCF7 breast,881 nM
same,TGI,MCF7 breast,2100 nM
same,GI50,MDA-MB-231 breast,754 nM
same,TGI,MDA-MB-231 breast,2000 nM
same,GI50,MDA-MB-468 breast,< 10 nM
same,TGI,MDA-MB-468 breast,29 nM
same,GI50,MOLT-4 leukemia,207 nM
same,TGI,MOLT-4 leukemia,511 nM
same,GI50,NCI-H322M lung,14.9 nM
same,TGI,NCI-H322M lung,53 nM
same,GI50,NCI-H522 lung,< 10 nM
same,TGI,NCI-H522 lung,63.3 nM
same,GI50,OVCAR-3 ovarian,148 nM
same,TGI,OVCAR-3 ovarian,> 100000 nM
same,GI50,OVCAR-5 ovarian,864 nM
same,TGI,OVCAR-5 ovarian,> 100000 nM
same,GI50,RPMI-8226 leukemia,242 nM
same,TGI,RPMI-8226 leukemia,515 nM
same,GI50,RXF 393 renal,143 nM
same,TGI,RXF 393 renal,598 nM
same,GI50,SF-268 CNS,311 nM
same,TGI,SF-268 CNS,> 100000 nM
same,GI50,SF-295 CNS,> 100000 nM
same,TGI,SF-295 CNS,> 100000 nM
same,GI50,SF-539 CNS,2170 nM
same,TGI,SF-539 CNS,> 100000 nM
same,GI50,SK-MEL-28 melanoma,> 100000 nM
same,TGI,SK-MEL-28 melanoma,> 100000 nM
same,GI50,SK-MEL-5 melanoma,183 nM
same,TGI,SK-MEL-5 melanoma,474 nM
same,GI50,SN12C renal,140 nM
same,TGI,SN12C renal,> 100000 nM
same,GI50,SR leukemia,530 nM
same,TGI,SR leukemia,876 nM
same,GI50,T-47D breast,< 10 nM
same,TGI,T-47D breast,> 100000 nM
same,GI50,TK-10 renal,71 nM
same,TGI,TK-10 renal,> 100000 nM
same,GI50,UACC-257 melanoma,2150 nM
same,TGI,UACC-257 melanoma,> 100000 nM
same,GI50,UACC-62 melanoma,405 nM
same,TGI,UACC-62 melanoma,> 100000 nM
same,GI50,UO-31 renal,267 nM
same,TGI,UO-31 renal,> 100000 nM
COc1cc(C(=O)NC2CCN(C)CC2)c(F)cc1Nc1ncc2c(n1)N(C1CCCC1)CC(F)(F)C(=O)N2C,GI50,786-0 renal,30.8 nM
same,TGI,786-0 renal,1430 nM
same,GI50,A498 renal,99.5 nM
same,TGI,A498 renal,10700 nM
same,GI50,A549 NSCLC,< 10 nM
same,TGI,A549 NSCLC,410 nM
same,GI50,ACHN renal,83.1 nM
same,TGI,ACHN renal,11300 nM
same,GI50,BT-549 breast,30.9 nM
same,TGI,BT-549 breast,242 nM
same,GI50,CAKI-1 renal,93.2 nM
same,TGI,CAKI-1 renal,10500 nM
same,GI50,CCRF-CEM leukemia,< 10 nM
same,TGI,CCRF-CEM leukemia,< 10 nM
same,GI50,EKVX NSCLC,91.7 nM
same,TGI,EKVX NSCLC,6980 nM
same,GI50,HCC-2998 colon,13.5 nM
same,TGI,HCC-2998 colon,51.5 nM
same,GI50,HCT-116 colon,< 10 nM
same,TGI,HCT-116 colon,1340 nM
same,GI50,HCT-15 colon,21.4 nM
same,TGI,HCT-15 colon,160 nM
same,GI50,HL-60(TB) leukemia,< 10 nM
same,TGI,HL-60(TB) leukemia,< 10 nM
same,GI50,HOP-62 NSCLC,< 10 nM
same,TGI,HOP-62 NSCLC,2900 nM
same,GI50,HOP-92 NSCLC,41.3 nM
same,TGI,HOP-92 NSCLC,1400 nM
same,GI50,HS 578T breast,13.5 nM
same,TGI,HS 578T breast,42.1 nM
same,GI50,HT29 colon,< 10 nM
same,TGI,HT29 colon,19.3 nM
same,GI50,IGROV1 ovarian,29.8 nM
same,TGI,IGROV1 ovarian,2820 nM
same,GI50,K-562 leukemia,< 10 nM
same,TGI,K-562 leukemia,53.7 nM
same,GI50,LOX IMVI melanoma,16.7 nM
same,TGI,LOX IMVI melanoma,1150 nM
same,GI50,MALME-3M melanoma,26.5 nM
same,TGI,MALME-3M melanoma,1530 nM
same,GI50,MCF7 breast,< 10 nM
same,TGI,MCF7 breast,1510 nM
same,GI50,MDA-MB-435 melanoma,< 10 nM
same,TGI,MDA-MB-435 melanoma,10.8 nM
same,GI50,MDA-MB-468 breast,< 10 nM
same,TGI,MDA-MB-468 breast,< 10 nM
same,GI50,MOLT-4 leukemia,< 10 nM
same,TGI,MOLT-4 leukemia,< 10 nM
same,GI50,NCI-H226 lung,1330 nM
same,TGI,NCI-H226 lung,6330 nM
same,GI50,NCI-H23 lung,< 10 nM
same,TGI,NCI-H23 lung,16.7 nM
same,GI50,NCI-H460 NSCLC,< 10 nM
same,TGI,NCI-H460 NSCLC,14.7 nM
same,GI50,NCI-H522 lung,< 10 nM
same,TGI,NCI-H522 lung,< 10 nM
same,GI50,NCI/ADR-RES ovarian,50.9 nM
same,TGI,NCI/ADR-RES ovarian,206 nM
same,GI50,OVCAR-3 ovarian,< 10 nM
same,TGI,OVCAR-3 ovarian,14.1 nM
same,GI50,OVCAR-4 ovarian,1630 nM
same,TGI,OVCAR-4 ovarian,5880 nM
same,GI50,OVCAR-5 ovarian,14 nM
same,TGI,OVCAR-5 ovarian,1730 nM
same,GI50,OVCAR-8 ovarian,10.4 nM
same,TGI,OVCAR-8 ovarian,26.8 nM
same,GI50,PC-3 prostate,33.4 nM
same,TGI,PC-3 prostate,13100 nM
same,GI50,RPMI-8226 leukemia,16.3 nM
same,TGI,RPMI-8226 leukemia,31.5 nM
same,GI50,RXF 393 renal,< 10 nM
same,TGI,RXF 393 renal,27.4 nM
same,GI50,SF-268 CNS,< 10 nM
same,TGI,SF-268 CNS,< 10 nM
same,GI50,SF-295 CNS,30.8 nM
same,TGI,SF-295 CNS,272 nM
same,GI50,SF-539 CNS,20.5 nM
same,TGI,SF-539 CNS,1060 nM
same,GI50,SK-MEL-5 melanoma,< 10 nM
same,TGI,SK-MEL-5 melanoma,42.8 nM
same,GI50,SK-OV-3 ovarian,16.7 nM
same,TGI,SK-OV-3 ovarian,1160 nM
same,GI50,SN12C renal,246 nM
same,TGI,SN12C renal,3440 nM
same,GI50,SNB-19 CNS,17.5 nM
same,TGI,SNB-19 CNS,5750 nM
same,GI50,SNB-75 CNS,47.2 nM
same,TGI,SNB-75 CNS,3280 nM
same,GI50,SW-620 colon,< 10 nM
same,TGI,SW-620 colon,28.4 nM
same,GI50,T-47D breast,26.1 nM
same,TGI,T-47D breast,1270 nM
same,GI50,TK-10 renal,1380 nM
same,TGI,TK-10 renal,5990 nM
same,GI50,U251 glioblastoma,< 10 nM
same,TGI,U251 glioblastoma,2360 nM
same,GI50,UO-31 renal,52.1 nM
same,TGI,UO-31 renal,2030 nM
